Patent US20230235286A1, “MRNA TRANSFECTION OF IMMUNE CELLS” (Carisma Therapeutics Inc., priority 2020, published 2023)

B1: IFN-γ: recombinant human IFN-γ (peprotech) (protein, UniProt P01579 24-161, looked up)
Interferon gamma: QDPYVKEAENLKKYFNAGHSDVADNGTLFLGILKNWKEESDRKIMQSQIVSFYFKLFKNFKDDQSIQKSVETIKEDMNVKFFNSNKKKRDDFEKLTNYSVTDLNVQRKAIHELIQVMAELSPAAKTGKRKRSQMLFRG
B2: CD40L: Recombinant CD40 ligand (Peprotech) (protein, UniProt P29965 113-261, looked up)
CD40 ligand, soluble form: MQKGDQNPQIAAHVISEASSKTTSVLQWAEKGYYTMSNNLVTLENGKQLTVKRQGLYYIYAQVTFCSNREASSQAPFIASLCLKSPGRFERILLRAANTHSSAKPCGQQSIHLGGVFELQPGASVFVNVTDPSQVSHGTGFTSFGLLKL

Legend:
human macrophages [1] = test: Cytokine secretion of CAR macrophages co-cultured with HER2+ breast cancer cells (MSD); assay type: cell-based; conditions: supernatant 48 hours after co-culture, E:T 3:1
Description: (§1) M1/M2 markers on primary human macrophages were detected with the following panel: Anti-CD11B PE (Biolegend, 301306), Anti-CD80 BV605 (Biolegend, 305225), Anti-CD86 BV711 (Biolegend, 305440), Anti CD206 BV421 (Biolegend, 321126), Anti CD163 APC-CY7 (Biolegend, 333622), anti HLA-DR BV785 (Biolegend, 307642), Anti HLA ABC PE/CY7 (Biolegend, 311430) and Live/Dead Fixable Aqua Dead Cell Stain Kit. Cytokine production (IL12, IFN-γ, TNF-α, IL6, IL8, IL1b, MCP-1, IL10, IL4, IL13, and other human cytokines) was evaluated in supernatant collected from macrophages (control or CAR) treated as described below using the MSD instrument per manufacturers recommendations (Meso Scale Discovery). In some cases, macrophages were co-cultured with antigen-bearing target cells at indicated effector to target ratios.
Human macrophages were electroporated with 150 nM HER2 CAR mRNA comprising m6AGCap1 and PsU modifications. HER2+ breast cancer cells (CRL2351) were co-cultured with CAR macrophages after the macrophages were transfected with the CAR mRNA at an Effector (CAR macrophage) to Target (cancer cell) ratio of 3:1. Supernatant was collected 48 hours after the cancer cells and macrophages were co-cultured and cytokine levels were measured using a Meso Scale Discovery (MSD) instrument.

human macrophages [2] = test: M1/M2 marker expression on CAR macrophages by flow cytometry; assay type: cell-based; conditions: mRNA transfected CAR macrophages
Description: IFN containing media was washed off after the indicated time. IFN-primed CAR macrophages were used for further analysis.
as §1
(§2) Human macrophages were electroporated with HER2 CAR mRNA comprising m6AGCap1 and PsU modifications. Cells were cultured with cytokines that induce an M1 phenotype such as IFN-alpha, IFN-beta, IFN-gamma, IFN-gamma plus lipopolysaccharide (LPS), TNF-alpha, IL-6 or a STING ligand (STING-L) for up to 48 hours and then cytokines were washed off and fresh media was added. CAR expression and M1 marker expression were measured on days 2 and 7 after transfection. Fluorescent labeled HER2+ breast cancer cells (CRL2351) were co-cultured with HER2 CAR macrophages two days after the macrophages were transfected. Cancer cell growth was monitored via its fluorescence on an Incucyte live imaging microscope every four hours. The Effector (CAR macrophage) to Target (cancer cell) ratio was 5:1.
Human macrophages were electroporated with 300 nM CAR mRNA comprising m6AGCap1 and PsU modifications. Cells were cultured with 20 ng/mL IFNs for 24 hours and then the cells were washed to remove cytokines. CAR expression was detected by Flow Cytometry (Attune) on day 2 after transfection. Cells were then co-cultured with a Nuc-Light labeled, HER2+ breast cancer cell line (CRL2351) at the Effector to Target ratio of 3:1. Cancer cell growth was monitored via its fluorescence on an Incucyte live imaging microscope. CAR expression and M1 markers in macrophages were detected by Flow Cytometry (Attune) on day 7 after transfection.

human macrophages [3] = test: mCherry expression in transfected macrophages with IFN-γ, sunitinib or ABCE1 (Incucyte); assay type: cell-based; conditions: cultured one day with different doses of IFN-γ
Description: The transfection efficiency, persistence of expression, and intensity of expression of the fluorescent reporter gene mCherry in human monocytes or macrophages was evaluated using real time live microscopy on the Incucyte (Sartorius) for the indicated period of time.
Macrophages were treated with 0-10 µM sunitinib (an RNAse-L inhibitor) for 2 hours prior to mRNA electroporation or transfection. The level of expression and persistence of expression of the encoded transgene was assessed using methods described above.
Human macrophages were transfected with mCherry mRNA comprising m6AGCap1 and PsU or N1mPsU modifications and were then cultured for one day with different doses of IFN-γ. mCherry expression was monitored on an Incucyte live imaging microscope.
In order to determine whether an RNaseL inhibitor could rescue IFN-γ-induced instability of transfected mRNA, human macrophages were treated with 1 µM sunitinib (an RNaseL inhibitor) two hours prior to the transfection of mCherry mRNA comprising m6AGCap1 and PsU modifications. Transfected cells were then cultured for one day with different dosages of IFN-γ. mCherry expression was monitored on an Incucyte live imaging microscope.
The effect of another RNaseL inhibitor (RLI or ABCE1) was also tested to further validate the concept. […]

human macrophages [4] = test: CAR expression on macrophages by flow cytometry; assay type: cell-based; conditions: two days after transfection, 20 ng/mL IFNs for 24 hours
human macrophages [5] = test: Viability of macrophages electroporated or transfected with CAR mRNA (FACS); assay type: cell-based; conditions: two days after transfection, 20 ng/mL IFNs for 24 hours
Description: as §2, with “The Effector (CAR macrophage) to Target (cancer cell) ratio was 5:1.” left out
Five different mRNA modifications were also tested to determine if interferon treatment differentially affected macrophages transfected with mRNA comprising different modifications. […] CAR expression and M1 markers were detected by Flow Cytometry (Attune) on day four after electroporation. […] Cancer cell growth was monitored via its fluorescence on an Incucyte live imaging microscope every four hours.
Human macrophages were electroporated with 300 nM CAR mRNA comprising m6AGCap1 and PsU modifications. […] CAR expression was detected by Flow Cytometry (Attune) on day 2 after transfection. […] Cancer cell growth was monitored via its fluorescence on an Incucyte live imaging microscope. […]

[6] = system: CRL-2351 cells expressing nuclear GFP; test: Tumor killing by macrophages and CAR macrophages primed on plates coated with CD40L, 4-1BB or 4-1BBL; assay type: cell-based, human; conditions: plate-coated protein
Description: (§3) To generate Her2-Zeta CAR expressing macrophages, primary human macrophages were suspended in EP buffer (MaxCyte) containing 300 nM mRNA (TriLink) at a concentration of 90×10^6 cells/mL. 100 µL of cell mixture was added to an electroporation cassette (OC 100x2; MaxCyte) and electroporated using the Experimental T cell 1 setting. Cells were removed from the cassette, plated in 3 mL of TexMACS media (Miltenyi Biotech) containing 20% FBS (Gibco) on UpCell plates (Thermo Scientific), and incubated overnight at 37° C. and 5% CO2.
(§4) Recombinant CD40 ligand (Peprotech), 4-1BB ligand (Enzo Life Sciences), and 4-1BB receptor (Peprotech) were re-suspended in molecular grade water to a stock concentration of 100 µg/mL. Stock solution was then used to create working solutions in PBS ranging from 2 -0.002 µg/mL. 100 µL of working solution was added to wells in a 96-well plate and left at room temperature for 4 hours.
Plates were removed from the incubator and left at room temperature for 30 minutes. Cells were detached from plate, counted using the NC-200 automated cell counter (Chemomtech), and re-suspended in TexMACS media with 10% FBS. […] Cell lysis was detected using the Incucyte (Essen Bioscience). Tumor cell death was calculated by integrated GFP intensity per well relative to time 0.

[7] = system: primary human macrophages; test: M1 and M2 marker expression after priming with CD40L, 4-1BB or 4-1BBL; assay type: cell-based; conditions: macrophages transfected with CAR mRNA, 3 days
Description: as §3, §4
For detection of cell surface proteins, macrophages were plated onto wells coated with agonist molecules in a final volume of 200 µL TexMACS media + 10% FBS + 10 ng/mL GM-CSF and incubated for 3 days at 37° C. and 5% CO2. Cells were incubated in 300 µL Accutase (Sigma) for 30 min and transferred to 96-well round bottom plate for staining. Cells were incubated in FACS buffer containing 20 µg/mL Her2-His for 20 min at RT, followed by incubation in Human TruStain FcX for 10 min at RT. […]

Row | Molecule | cytokine secretion (human macrophages [1]) | M1 phenotype based on CD86 expression (human macrophages [2]) | M2 markers based on CD163 expression (human macrophages [2]) | also measured
1 | IFN-γ: recombinant human IFN-γ (peprotech) | increased secretion of the cytokines IL-6, IL-8 and TNFα | induction of an M1 phenotype | reduction of M2 markers | mCherry mRNA expression (human macrophages [3]): reduced mCherry mRNA expression; CAR expression (human macrophages [4]): very high except in macrophages that had been treated with IFN-γ
2 | IFN-α | increased secretion of the cytokines IL-6, IL-8 and TNFα | induction of an M1 phenotype | reduction of M2 markers | –
3 | B1 | – | – | – | CAR macrophage viability (human macrophages [5]): very high except in macrophages that had been treated with IFN-γ
4 | B2 | – | – | – | tumor killing ability of macrophages and CAR macrophages [6]: significantly improved the tumor killing ability; M1 phenotype (M1 and M2 markers) [7]: induced an M1 phenotype
